{"source": "ChEMBL document CHEMBL6127119", "about": "(J Med Chem, 2024)", "key": {"[1]": {"system": "Staphylococcus aureus", "assay": "Induction of cytoplasmic membrane permeabilization in methicillin-resistant Staphylococcus aureus MRSA252 measured for 40 mins by PI/NPN staining based analysis", "format": "functional, organism-based", "conditions": "dose 1-128 µg/ml"}, "[2]": {"system": "Escherichia coli", "assay": "Bactericidal activity against Escherichia coli AB1157 assessed as reduction in bacterial count at 8 times MIC measured after 24 hrs by time kill assay", "format": "functional"}, "[3]": {"system": "Escherichia coli", "assay": "Induction of cytoplasmic membrane depolarization in Escherichia coli AB1157 at 5 uM by DiSC3(5) staining based analysis", "format": "functional, organism-based"}, "[4]": {"system": "Peptidoglycan", "assay": "Binding affinity to Ac-Lys(Ac)-D-Ala-D-Ala lipid II model peptide moiety assessed as association constant by ITC analysis"}, "[5]": {"system": "Enterococcus faecium", "assay": "Bacteriostatic activity against Enterococcus faecium SC-2022-D2-059 harboring VanA phenotype at 1 to 8 times MIC measured after 24 hrs by time kill assay", "format": "functional, organism-based"}, "[6]": {"system": "Pseudomonas aeruginosa", "assay": "Antibacterial activity against Pseudomonas aeruginosa PAO1 incubated for 16 to 24 hrs by CLSI based broth microdilution method", "format": "functional", "conditions": "time 16-24 hrs"}, "[7]": {"system": "Staphylococcus epidermidis", "assay": "Antibacterial activity against methicillin-resistant Staphylococcus epidermidis clinical isolate incubated for 16 to 24 hrs by CLSI based broth microdilution method", "format": "functional", "conditions": "time 16-24 hrs"}, "[8]": {"system": "Staphylococcus aureus", "assay": "Antibacterial activity against Staphylococcus aureus Mu50 assessed as fold decrease in MIC at 1:1 ratio of compound and Ac2KAA at […] incubated for 16 to 24 hrs by absorbance based assay relative to control", "format": "functional", "conditions": "dose 128 µg/ml; time 16-24 hrs"}, "[9]": {"assay": "Hemolytic activity in rat RBC upto 100 ug/ml incubated for 1 hr by absorbance based assay", "format": "toxicity, cell-based", "conditions": "erythrocyte, dose < 100 µg/ml"}, "[10]": {"system": "Staphylococcus aureus", "assay": "Antibacterial activity against Staphylococcus aureus Mu50 at 1:1 ratio of compound and FPP at […] incubated for 16 to 24 hrs by absorbance based assay", "format": "functional, organism-based", "conditions": "dose 128.0 µg/ml, time 16-24 hrs"}, "[11]": {"system": "Staphylococcus aureus", "assay": "Induction of membrane disruption in Staphylococcus aureus MRSA252 assessed as leakage of protoplasm content at 1 to 8 ug/ml incubated for 4 to 24 hrs by TEM analysis", "format": "functional, organism-based", "conditions": "dose 1-8 µg/ml, time 4-24 hrs"}, "[12]": {"system": "Escherichia coli", "assay": "Induction of cytoplasmic membrane permeabilization in Escherichia coli AB1157 at 16 ug/ml measured for 40 mins by PI/NPN staining based assay", "format": "functional, organism-based", "conditions": "dose 16.0 µg/ml"}, "[13]": {"system": "Klebsiella pneumoniae", "assay": "Antibacterial activity against Klebsiella pneumoniae clinical isolate incubated for 16 to 24 hrs by CLSI based broth microdilution method", "format": "functional", "conditions": "time 16-24 hrs"}, "[14]": {"system": "Peptidoglycan", "assay": "Binding affinity to Ac-Lys(Ac)-D-Ala-D-Ala lipid II model peptide moiety assessed as change in Gibb's free energy by ITC analysis"}, "[15]": {"system": "Staphylococcus aureus", "assay": "Induction of drug resistance in vancomycin-sensitive Staphylococcus aureus MRSA252 assessed as change in MIC measured after 16 days of serial passages by broth microdilution method", "format": "functional, organism-based", "conditions": "time 16.0 day"}, "[16]": {"assay": "AUClast in CD-1 mouse at 10 mg/kg, iv measured for 24 hrs by UPLC analysis", "format": "ADME, organism-based", "conditions": "in vivo"}, "[17]": {"assay": "Half life in CD-1 mouse at 10 mg/kg, iv measured for 24 hrs by UPLC analysis", "format": "ADME, organism-based", "conditions": "in vivo"}, "[18]": {"system": "Staphylococcus aureus", "assay": "Induction of drug resistance in vancomycin-intermediate Staphylococcus aureus Mu50 assessed as change in MIC after 20 passages by broth microdilution method", "format": "functional, organism-based"}, "[19]": {"system": "Acinetobacter baumannii", "assay": "Potency index, ratio of Norvancomycin MIC to test compound MIC for Carbapenem-resistant Acinetobacter baumannii clinical isolate incubated for 16 to 24 hrs by CLSI based broth microdilution method", "format": "functional", "conditions": "time 16-24 hrs"}, "[20]": {"system": "Staphylococcus aureus", "assay": "Inhibition of peptidoglycan biosynthesis in Staphylococcus aureus MRSA252 assessed as increase in accumulation of Park's nucleotide at 0.5 ug/ml incubated for 2 hrs by RP-HPLC analysis", "format": "functional, organism-based", "conditions": "dose 0.5 µg/ml"}, "[21]": {"system": "Escherichia coli", "assay": "Bactericidal activity against Escherichia coli AB1157 assessed as reduction in bacterial count at MIC measured after 24 hrs by time kill assay", "format": "functional"}, "[22]": {"system": "Staphylococcus aureus", "assay": "Bacteriostatic activity against methicillin-resistant Staphylococcus aureus MRSA252 at MIC measured after 24 hrs by time kill assay", "format": "functional, organism-based"}, "[23]": {"system": "Peptidoglycan", "assay": "Binding affinity to Ac-Lys(Gly5)-D-Ala-D-Ala lipid II model peptide moiety assessed as association constant by ITC analysis"}, "[24]": {"system": "Escherichia coli", "assay": "Potency index, ratio of Vancomycin MIC to test compound MIC for Escherichia coli […] incubated for 16 to 24 hrs by CLSI based broth microdilution method", "format": "functional", "conditions": "time 16-24 hrs"}, "[25]": {"assay": "AUC (infinity) in CD-1 mouse at 10 mg/kg, iv measured for 24 hrs by UPLC analysis", "format": "ADME, organism-based", "conditions": "in vivo"}, "[26]": {"system": "Enterococcus faecalis", "assay": "Induction of cytoplasmic membrane depolarization in Enterococcus faecalis ATCC29212 by DiSC3(5) staining based analysis", "format": "functional, organism-based"}, "[27]": {"system": "Enterococcus faecium", "assay": "Antibacterial activity against vancomycin-resistant Enterococcus faecium harboring VanA phenotype clinical isolate incubated for 16 to 24 hrs by CLSI based broth microdilution method", "format": "functional", "conditions": "time 16-24 hrs"}, "[28]": {"system": "Staphylococcus aureus", "assay": "Post-antibiotic effect in Staphylococcus aureus MRSA252 at 10 times measured after 7 hrs", "format": "functional, organism-based"}, "[29]": {"system": "Staphylococcus aureus", "assay": "Post-antibiotic effect in Staphylococcus aureus MRSA252 assessed as time of effect at 20 times", "format": "functional"}, "[30]": {"system": "Enterococcus faecium", "assay": "Potency index, ratio of Norvancomycin MIC to test compound MIC for vancomycin-resistant Enterococcus faecium incubated for 16 to 24 hrs by CLSI based broth microdilution method", "format": "functional", "conditions": "time 16-24 hrs"}, "[31]": {"assay": "MRT (infinity) in CD-1 mouse at 10 mg/kg, iv measured for 24 hrs by UPLC analysis", "format": "ADME, organism-based", "conditions": "in vivo"}, "[32]": {"system": "Peptidoglycan", "assay": "Binding affinity to Ac-Lys(Gly5)-D-Ala-D-Ala lipid II model peptide moiety assessed as change in Gibb's free energy by ITC analysis"}, "[33]": {"system": "Enterococcus faecium", "assay": "Antibacterial activity against Enterococcus faecium clinical isolate incubated for 16 to 24 hrs by CLSI based broth microdilution method", "format": "functional", "conditions": "time 16-24 hrs"}, "[34]": {"system": "Escherichia coli", "assay": "Inhibition of peptidoglycan biosynthesis in Escherichia coli AB1157 assessed as increase in accumulation of Park's nucleotide at 16 ug/ml incubated for 2 hrs by RP-HPLC analysis", "format": "functional, organism-based", "conditions": "dose 16.0 µg/ml"}, "[35]": {"assay": "Volume of distribution at steady state in CD-1 mouse at 10 mg/kg, iv measured for 24 hrs by UPLC analysis", "format": "ADME, organism-based", "conditions": "in vivo, read-out: Vdss"}, "[36]": {"system": "Escherichia coli", "assay": "Antibacterial activity against Escherichia coli AB1157 incubated for 16 to 24 hrs by CLSI based broth microdilution method", "format": "functional", "conditions": "time 16-24 hrs"}, "[37]": {"system": "Staphylococcus aureus", "assay": "Induction of cytoplasmic membrane depolarization in methicillin-resistant Staphylococcus aureus MRSA252 by DiSC3(5) staining based analysis", "format": "functional, organism-based"}, "[38]": {"system": "Acinetobacter baumannii", "assay": "Potency index, ratio of Vancomycin MIC to test compound MIC for Carbapenem-resistant Acinetobacter baumannii clinical isolate incubated for 16 to 24 hrs by CLSI based broth microdilution method", "format": "functional", "conditions": "time 16-24 hrs"}, "[39]": {"system": "Staphylococcus haemolyticus", "assay": "Antibacterial activity against methicillin-resistant Staphylococcus haemolyticus clinical isolate incubated for 16 to 24 hrs by CLSI based broth microdilution method", "format": "functional", "conditions": "time 16-24 hrs"}, "[40]": {"system": "Staphylococcus hominis", "assay": "Antibacterial activity against methicillin-resistant Staphylococcus hominis clinical isolate incubated for 16 to 24 hrs by CLSI based broth microdilution method", "format": "functional", "conditions": "time 16-24 hrs"}, "[41]": {"system": "Escherichia coli", "assay": "Induction of inner membrane permeabilization in Escherichia coli AB1157 measured for 50 mins by PI staining based analysis", "format": "functional, organism-based", "conditions": "dose 1-128 µg/ml"}}, "note": "Active and inactive are the calls of the source. The rule behind the calls is not given here.", "data": [{"smiles": "CC(C)C[C@@H](N)C(=O)N[C@H]1C(=O)N[C@@H](CC(N)=O)C(=O)N[C@H]2C(=O)N[C@H]3C(=O)N[C@H](C(=O)N[C@H](C(=O)NCc4ccc(-c5ccc(CNC(=N)N)cc5)cc4)c4cc(O)cc(O)c4-c4cc3ccc4O)[C@H](O)c3ccc(c(Cl)c3)Oc3cc2cc(c3O[C@@H]2O[C@H](CO)[C@@H](O)[C@H](O)[C@H]2O[C@H]2C[C@](C)(N)[C@H](O)[C@H](C)O2)Oc2ccc(cc2Cl)[C@H]1O", "values": [{"measurement": "Activity", "setting": "[1]", "value": "Dose-Dependent Effect"}, {"measurement": "Activity", "setting": "[2]", "value": 3, "unit": "log10CFU/ml"}, {"measurement": "Activity", "setting": "[3]", "value": "inactive"}, {"measurement": "Ka", "setting": "[4]", "value": "1.32e+06", "unit": "M⁻¹"}, {"measurement": "Activity", "setting": "[5]", "value": "Active"}, {"measurement": "MIC", "setting": "[6]", "value": "> 128", "unit": "µg/mL"}, {"measurement": "MIC", "setting": "[7]", "value": "≤ 0.03", "unit": "µg/mL"}, {"measurement": "fold change (FC)", "setting": "[8]", "value": 2}, {"measurement": "Activity", "setting": "[9]", "value": "Non-Toxic"}, {"measurement": "Activity", "setting": "[10]", "value": "Active"}, {"measurement": "Activity", "setting": "[11]", "value": "Active"}, {"measurement": "Activity", "setting": "[12]", "value": "Active"}, {"measurement": "MIC", "setting": "[13]", "value": "> 128", "unit": "µg/mL"}, {"measurement": "deltaG", "setting": "[14]", "value": -8.35, "unit": "kcal/mol"}, {"measurement": "Activity", "setting": "[15]", "value": "inactive"}, {"measurement": "AUC(0-t) at 24 h", "setting": "[16]", "value": 28400, "unit": "ng·h/mL"}, {"measurement": "half-life", "setting": "[17]", "value": 13.4, "unit": "h"}, {"measurement": "Activity", "setting": "[18]", "value": "inactive"}, {"measurement": "Ratio", "setting": "[19]", "value": 2}, {"measurement": "Activity", "setting": "[20]", "value": "Active"}, {"measurement": "Activity", "setting": "[21]", "value": 1, "unit": "log10CFU/ml"}, {"measurement": "Activity", "setting": "[22]", "value": "Active"}, {"measurement": "Ka", "setting": "[23]", "value": "2.32e+06", "unit": "M⁻¹"}, {"measurement": "Ratio", "setting": "[24]", "value": 2}, {"measurement": "AUC(0-inf)", "setting": "[25]", "value": 40000, "unit": "ng·h/mL"}, {"measurement": "Activity", "setting": "[26]", "value": "Active"}, {"measurement": "MIC", "setting": "[27]", "value": 2, "unit": "µg/mL"}, {"measurement": "Activity", "setting": "[28]", "value": "Active"}, {"measurement": "Time", "setting": "[29]", "value": 23, "unit": "h"}, {"measurement": "Ratio", "setting": "[30]", "value": 2}, {"measurement": "MRT inf", "setting": "[31]", "value": 20.2, "unit": "h"}, {"measurement": "deltaG", "setting": "[32]", "value": -8.69, "unit": "kcal/mol"}, {"measurement": "MIC", "setting": "[33]", "value": "≤ 0.03", "unit": "µg/mL"}, {"measurement": "Activity", "setting": "[34]", "value": "Active"}, {"measurement": "Vd", "setting": "[35]", "value": 5.12, "unit": "L/kg"}, {"measurement": "MIC", "setting": "[36]", "value": 8, "unit": "µg/mL"}, {"measurement": "Activity", "setting": "[37]", "value": "inactive"}, {"measurement": "Ratio", "setting": "[38]", "value": 2}, {"measurement": "MIC", "setting": "[39]", "value": "≤ 0.03", "unit": "µg/mL"}, {"measurement": "MIC", "setting": "[40]", "value": "≤ 0.03", "unit": "µg/mL"}, {"measurement": "Activity", "setting": "[41]", "value": "Dose-Dependent Effect"}]}]}
